ChEMBL document CHEMBL1145647, “Phenylcyclobutyl triazoles as selective inhibitors of 11beta-hydroxysteroid dehydrogenase type I” (Bioorg Med Chem Lett, 2008)

What was measured:
[1] = molecular target: 11-beta-hydroxysteroid dehydrogenase 1 (Homo sapiens, UniProt P28845); experiment: Inhibition of human 11-beta-HSD1 by SPA assay
[2] = molecular target: 11-beta-hydroxysteroid dehydrogenase 1 (Mus musculus, UniProt P50172); experiment: Inhibition of mouse 11-beta-HSD1 by SPA assay
[3] = molecular target: T1, 11-beta-hydroxysteroid dehydrogenase type 2 (Homo sapiens, UniProt P80365); experiment: Inhibition of human 11-beta-HSD2 by SPA assay
T1 sequence (P80365 whole entry): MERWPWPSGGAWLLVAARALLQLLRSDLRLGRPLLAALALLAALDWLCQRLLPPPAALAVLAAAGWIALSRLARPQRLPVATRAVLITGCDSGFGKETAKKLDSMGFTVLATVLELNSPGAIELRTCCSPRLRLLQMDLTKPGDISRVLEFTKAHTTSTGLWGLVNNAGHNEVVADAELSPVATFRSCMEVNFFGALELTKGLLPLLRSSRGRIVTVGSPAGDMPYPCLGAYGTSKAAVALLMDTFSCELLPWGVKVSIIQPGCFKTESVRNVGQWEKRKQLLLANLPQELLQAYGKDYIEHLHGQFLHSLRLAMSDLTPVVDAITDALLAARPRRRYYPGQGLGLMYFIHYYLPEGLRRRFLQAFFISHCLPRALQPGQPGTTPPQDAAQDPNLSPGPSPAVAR

[4] = molecular target: T2, 11-beta-hydroxysteroid dehydrogenase type 2 (Mus musculus, UniProt P51661); experiment: Inhibition of mouse 11-beta-HSD2 by SPA assay
T2 sequence (P51661 whole entry): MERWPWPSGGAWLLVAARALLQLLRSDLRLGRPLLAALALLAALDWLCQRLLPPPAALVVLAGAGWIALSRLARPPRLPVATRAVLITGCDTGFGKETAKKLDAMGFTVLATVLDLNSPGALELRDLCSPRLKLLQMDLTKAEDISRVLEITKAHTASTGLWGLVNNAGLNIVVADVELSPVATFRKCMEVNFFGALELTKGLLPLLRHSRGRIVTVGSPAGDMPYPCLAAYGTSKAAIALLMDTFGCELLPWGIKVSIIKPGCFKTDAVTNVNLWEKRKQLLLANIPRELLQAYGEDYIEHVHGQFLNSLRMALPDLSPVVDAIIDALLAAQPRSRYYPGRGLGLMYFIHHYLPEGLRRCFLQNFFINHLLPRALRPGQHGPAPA

[5] = tested on: Mus musculus; experiment: Inhibition of 11-beta-HSD1 in mouse pharmacodynamic model assessed as inhibition of [3H]cortisone to [3H]cortisol at 10 mg/kg, po after 1 hr; format: functional
[6] = tested on: Mus musculus; experiment: Inhibition of 11-beta-HSD1 in mouse pharmacodynamic model assessed as inhibition of [3H]cortisone to [3H]cortisol at 10 mg/kg, po after 4 hrs; format: functional
[7] = Plasma concentration in C57B6 mouse at 10 mg/kg; format: ADME, organism-based; design: dose 10 mg/kg
[8] = Half life in C57B6 mouse at 10 mg/kg; format: ADME, organism-based; design: dose 10 mg/kg; conditions: in vivo
[9] = Oral bioavailability in C57B6 mouse at 10 mg/kg; format: ADME, organism-based; conditions: in vivo

11-beta-hydroxysteroid dehydrogenase 1 (Homo sapiens, UniProt P28845), sequence (P28845 whole entry): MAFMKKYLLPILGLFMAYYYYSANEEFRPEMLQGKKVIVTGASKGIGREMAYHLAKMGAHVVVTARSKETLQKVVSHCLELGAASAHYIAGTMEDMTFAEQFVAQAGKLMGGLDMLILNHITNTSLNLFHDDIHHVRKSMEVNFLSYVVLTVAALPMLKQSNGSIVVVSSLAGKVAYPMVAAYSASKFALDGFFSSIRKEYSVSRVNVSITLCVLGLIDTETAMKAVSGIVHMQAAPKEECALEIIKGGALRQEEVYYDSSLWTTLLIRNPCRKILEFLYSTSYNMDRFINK
11-beta-hydroxysteroid dehydrogenase 1 (Mus musculus, UniProt P50172), sequence (P50172 whole entry): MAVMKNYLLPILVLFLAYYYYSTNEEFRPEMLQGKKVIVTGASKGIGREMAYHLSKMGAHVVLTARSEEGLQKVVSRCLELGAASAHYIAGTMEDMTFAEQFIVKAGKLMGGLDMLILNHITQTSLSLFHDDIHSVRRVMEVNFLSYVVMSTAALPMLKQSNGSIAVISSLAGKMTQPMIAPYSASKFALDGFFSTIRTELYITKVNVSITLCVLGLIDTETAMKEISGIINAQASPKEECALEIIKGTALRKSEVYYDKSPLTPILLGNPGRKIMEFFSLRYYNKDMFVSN

| Compound | IC50 [1] [nM] | IC50 [2] [nM] | IC50 [3] [nM] | IC50 [4] [nM] | inhibition in vivo at 10 mg/kg [5] [%] | inhibition in vivo at 10 mg/kg [6] [%] | clearance [7] [mL/min/kg] | half-life [8] [h] | bioavailability [9] [%] |
| --- | --- | --- | --- | --- | --- | --- | --- | --- | --- |
| Cc1cccc(C2(c3nnc4n3CCCCCC4)CCC2)c1 | 2 | 52 | > 4000 | > 4000 | 17 | 22 |  |  |  |
| Clc1ccc(C2(c3nnc4n3CCCCCC4)CCCCC2)cc1 | 32 | 454 |  | > 4000 |  |  |  |  |  |
| Clc1ccc(C2(c3nnc4n3CCCCCC4)CCCC2)cc1 | 2 | 41 |  |  |  |  |  |  |  |
| Fc1ccc(C2(c3nnc4n3CCCCCC4)CCCC2)cc1 | 8 | 18 | > 4000 | > 4000 | 58 | 30 |  |  |  |
| C1CCCn2c(nnc2C23CC4CC(CC(C4)C2)C3)CC1 |  |  |  |  |  | 24 |  |  |  |
| Fc1cccc(C2(c3nnc4n3CCCCCC4)CCC2)c1 | 2 | 19 | 4000 | > 4000 | 87 | 68 |  |  |  |
| Cc1ccccc1C1(c2nnc3n2CCCCCC3)CCC1 | 1 | 78 | 3320 | > 4000 | 23 | 21 |  |  |  |
| Oc1cccc(C2(c3nnc4n3CCCCCC4)CCCC2)c1 | 43 | 61 | > 4000 | > 4000 | 3 | 21 |  |  |  |
| Cc1ccc(C2(c3nnc4n3CCCCCC4)CCC2)cc1 | 2 | 19 | 2010 | > 4000 | 48 | 28 |  |  |  |
| C1CCc2nnc(C34CC5CC(CC(C5)C3)C4)n2CC1 | 7.8 | 98 | > 3000 | > 10000 | 59 | 17 |  |  |  |
| FC(F)(F)c1ccc(C2(c3nnc4n3CCCCCC4)CCC2)cc1 | 2 | 115 | > 4000 | > 4000 |  |  |  |  |  |
| Fc1ccc(C2(c3nnc4n3CCCCCC4)CCC2)cc1 | 3 | 37 | > 4000 | > 4000 | 68 | 55 |  |  |  |
| FC(F)(F)c1ccccc1C1(c2nnc3n2CCCCCC3)CCC1 | 5 | 355 | > 4000 | > 4000 |  |  |  |  |  |
| c1ccc(C2(c3nnc4n3CCCCCC4)CCCCC2)cc1 | 13 | 100 | 1040 | > 4000 | 25 | 0 |  |  |  |
| Fc1ccc(C2(c3nnc4n3CCCCCC4)CCCCC2)cc1 | 27 | 494 | 1170 | > 4000 |  |  |  |  |  |
| Clc1ccc(C2(c3nnc4n3CCCCCC4)CC2)c(Cl)c1 | 2 | 199 | 1960 | > 4000 |  |  |  |  |  |

| Compound | IC50 [1] [nM] | IC50 [2] [nM] | IC50 [3] [nM] | IC50 [4] [nM] | inhibition in vivo at 10 mg/kg [5] [%] | inhibition in vivo at 10 mg/kg [6] [%] | clearance [7] [mL/min/kg] | half-life [8] [h] | bioavailability [9] [%] |
| --- | --- | --- | --- | --- | --- | --- | --- | --- | --- |
| Fc1ccccc1C1(c2nnc3n2CCCCCC3)CCC1 | 1 | 16 | < 4000 | > 4000 | 90 | 53 |  |  |  |
| C1C2CC3CC1CC(c1nnc(C4CC4)n1C1CC1)(C2)C3 |  |  |  |  |  | 74 |  |  |  |
| Cc1ccc(C2(c3nnc4n3CCCCCC4)CCCCC2)cc1 | 15 | 374 |  | > 4000 |  |  |  |  |  |
| Clc1ccc(C2(c3nnc4n3CCCCCC4)CC2)cc1 | 2 | 230 | > 4000 | > 4000 |  |  |  |  |  |
| Cc1ccc(C2(c3nnc4n3CCCCCC4)CC2)cc1 | 1 | 332 | > 4000 | > 4000 |  |  |  |  |  |
| F[C@H]1C[C@](c2ccc(Cl)cc2)(c2nnc(C3CC3)n2C2CC2)C1 | 5 | 16 | > 4000 | > 4000 | 92 | 91 | 10.7 | 1.5 | 100 |
| c1ccc(C2(c3nnc4n3CCCCCC4)CCCC2)cc1 | 2 | 12 | 1040 | > 4000 | 73 | 37 |  |  |  |
| Clc1ccc(C2(c3nnc4n3CCCCCC4)CCC2)cc1 | 1 | 14 |  |  | 91 | 77 |  |  |  |
| c1ccc(C2(c3nnc4n3CCCCCC4)CCC2)cc1 | 1 | 8 | 4000 | > 4000 | 88 | 72 |  |  |  |
| Cc1ccc(C2(c3nnc4n3CCCCCC4)CCCC2)cc1 | 2 | 25 |  | > 4000 | 35 | 3 |  |  |  |
| F[C@H]1C[C@@](c2ccc(Cl)cc2)(c2nnc(C3CC3)n2C2CC2)C1 | 22 | 38 | > 4000 | > 4000 |  |  |  |  |  |
| FC1(F)CC(c2ccc(Cl)cc2)(c2nnc(C3CC3)n2C2CC2)C1 | 35 | 107 | > 4000 | > 4000 |  |  |  |  |  |
| c1ccc(C2(c3nnc4n3CCCCCC4)CC2)cc1 | 8 | 172 | > 4000 | > 4000 | 63 | 45 |  |  |  |
| Cc1cccc(C2(c3nnc4n3CCCCCC4)CCCC2)c1 | 10 | 57 | 1960 | > 4000 | 20 | 22 |  |  |  |
| Fc1ccccc1C1(c2nnc3n2CCCCCC3)CCCC1 | 1 | 27 | 1270 | > 4000 | 57 | 18 |  |  |  |
